We go through 2 compounds from paper PMC6510840, “A phase 1b study of transforming growth factor-beta receptor I inhibitor galunisertib in combination with sorafenib in Japanese patients with unresectable hepatocellular carcinoma” (Investigational New Drugs, 2018).

Where two headings read alike, the source gives them in different places. Marks after values point to notes of the source that are not given here.

As a reminder, the Tmax is the time at which the peak concentration occurs. One may read the Cmax as the peak of the concentration-time curve. For orientation: AUC(0-inf) means total exposure, with the tail of the curve extrapolated.

Data set [1] is described as follows: Noncompartmental plasma pharmacokinetics in phase 1b study. The note with it: for Tmax / half-life / AUC(0-t) / Cmax / AUC(0-inf) / Vd/F: human, plasma; for Cmax: geometric mean (CV%); for Vd/F: read-out: VZ/F. It counts as in vivo, human. How it is done:
PK analyses were conducted on patients who received at least one dose of galunisertib and had PK samples collected. The PK parameters for galunisertib were calculated by standard noncompartmental methods of analysis using Phoenix™ WinNonlin® 6.4 (Pharsight, A Certara Company; Princeton, NJ, USA). The maximum plasma concentration, time to maximum plasma concentration (tmax), area under the plasma concentration versus time curve from time zero to the last time point with a measurable concentration, and area under the plasma concentration-time curve from time zero to infinity, half-life (t1/2), apparent total body clearance (CL/F), and apparent volume of distribution during the terminal phase (Vz/F) that could be calculated from the data were reported for galunisertib from the noncompartmental PK analyses. Sorafenib PK profiles on day 22 (sorafenib monotherapy) were compared with sorafenib PK profiles on day 14 (administration of galunisertib in combination with sorafenib) within the same patient and in each cohort.

A further data set deals with HCC. On the set-up: method as in PMID 18650514. The note with it: sorafenib arm, global SHARP study; cited from earlier work.
The subject of the next data set is advanced HCC. On the set-up: method as in earlier work. Conditions: galunisertib monotherapy, cited from earlier work.
For data set [2], the system named is Japanese patients with unresectable hepatocellular carcinoma. As to the kind of experiment: Safety and tolerability (DLTs, TEAEs, SAEs, QTc) in phase 1b study. The note with it: for 14 days (then 14 days rest), in combination with sorafenib.
Procedure: All eligible patients in this phase 1b, open-label, dose-escalation, multicenter, nonrandomized study received oral administration of galunisertib (160 mg or 300 mg/day) in combination with oral administration of sorafenib 800 mg/day. A cycle was defined as 28 days. Galunisertib was administered at either 80 mg twice daily or 150 mg twice daily for 14 days, followed by 14 days of galunisertib treatment rest, and sorafenib 400 mg twice daily for 28 days. Patients continued treatment until a discontinuation criterion was met.
The DLT evaluation period was 28 days after the first dose. Tolerability was defined as a dose where 2 or fewer of 6 patients experience DLTs. A minimum of 3 patients were planned to be enrolled in the galunisertib 160 mg/day plus sorafenib group, and a minimum of 6 patients were planned to be enrolled in the galunisertib 300 mg/day plus sorafenib group. […]
The sample size was determined based on the study design to evaluate the DLTs, safety, and tolerability of galunisertib in two sequential study treatment groups. […] Patients without a DLT who discontinued the study in cycle 1 due to disease progression, or discontinued sorafenib in cycle 1 for reasons other than disease progression, were assessed for appropriateness of DLT evaluation per Efficacy and Safety Evaluation Committee recommendations. […]
The mark [3] stands for this setting: po, Galunisertib 160 mg/day plus sorafenib, Cycle 1 Day 14, geometric mean (CV%), n = 3.
Where [4] appears, read: po, Galunisertib 300 mg/day plus sorafenib, Cycle 1 Day 14, geometric mean (CV%), n = 3.

In the case of `CNC(=O)c1cc(Oc2ccc(NC(=O)Nc3ccc(Cl)c(C(F)(F)F)c3)cc2)ccn1` [sorafenib], the “PK profile of sorafenib in combination with galunisertib” value in data set [1] (day 14 (with galunisertib) versus day 22 (sorafenib monotherapy), data not shown) was “comparable to that of sorafenib administered alone”. Besides, the “median OS” value with HCC is on record as 10.7 months.

As to `Cc1cccc(-c2nn3c(c2-c2ccnc4ccc(C(N)=O)cc24)CCC3)n1` [Galunisertib, galunisertib], the “median OS” value is reported as 16.8 months in the data set with advanced HCC (AFP <1.5 ULN (part B), 90% CI 10.4–24.1) and 7.2 months in the data set with advanced HCC (baseline AFP ≥1.5 ULN (part A), 90% CI 5.3–9.3). The “median time-to-progression (TTP)” value was 2.7 months with advanced HCC (part A, 90% CI 1.4−2.9) and 4.1 months in the data set on advanced HCC (part B, 90% CI 2.3–5.5). For the same compound, the “recommended dose of galunisertib with confirmed tolerability” value in data set [2] came out at 150 mg twice daily. In addition, the CL/F is given as 10.1 (4)^d L/h in data set [1] (Galunisertib 160 mg/day plus sorafenib, Cycle 1 Day 14, geometric mean (CV%), n = 3); 10.1 L/h in data set [1] (Galunisertib 160 mg/day plus sorafenib, Cycle 1 Day 14, geometric mean (CV%), n = 3, listed as galunisertib); 13.5 (9)^d L/h in data set [1] (Galunisertib 300 mg/day plus sorafenib, Cycle 1 Day 14, geometric mean (CV%), n = 3); 13.5 L/h in data set [1] (Galunisertib 300 mg/day plus sorafenib, Cycle 1 Day 14, geometric mean (CV%), n = 3, listed as galunisertib). The Tmax in data set [1] (oral, both galunisertib doses (160 and 300 mg/day) plus sorafenib, post-dose, read-out: median tmax) is 1 to 2 h; in data set [1] (po, 160 mg/day, Galunisertib 160 mg/day plus sorafenib, Cycle 1 Day 1, median (range), N 7, read-out: tmax), 1.93 h; in data set [1] (po, 160 mg/day, Galunisertib 160 mg/day plus sorafenib, Cycle 1 Day 14, median (range), N 7, read-out: tmax), 1.85 h; in data set [1] (po, 300 mg/day, Galunisertib 300 mg/day plus sorafenib, Cycle 1 Day 1, median (range), N 7, read-out: tmax), 0.93 h; in data set [1] (po, 300 mg/day, Galunisertib 300 mg/day plus sorafenib, Cycle 1 Day 14, median (range), N 4, read-out: tmax), 2.04 h. Also, the half-life in data set [1] (oral, both galunisertib doses (160 and 300 mg/day) plus sorafenib, read-out: mean t1/2 (converted)) was roughly 4 h; in data set [1] (po, Galunisertib 160 mg/day plus sorafenib, Cycle 1 Day 14, geometric mean (range), n = 3, read-out: t1/2 (converted)) it was 4.24 h; in data set [1] (po, Galunisertib 300 mg/day plus sorafenib, Cycle 1 Day 14, geometric mean (range), n = 3, read-out: t1/2 (converted)), 4.01 h. For the same compound, the AUC(0-t) in data set [1] (po, 160 mg/day, Galunisertib 160 mg/day plus sorafenib, Cycle 1 Day 1, geometric mean (CV%), N 7, read-out: AUC(0-6)) is 2800 ng·h/mL; in data set [1] (po, 160 mg/day, Galunisertib 160 mg/day plus sorafenib, Cycle 1 Day 14, geometric mean (CV%), N 7, read-out: AUC(0-6)) it was 3670 ng·h/mL; in data set [1] (po, 160 mg/day, Galunisertib 160 mg/day plus sorafenib, Cycle 1 Day 14, geometric mean (CV%), n = 6, read-out: AUC(0–24)) it was 7170 ng·h/mL; in data set [1] (po, 300 mg/day, Galunisertib 300 mg/day plus sorafenib, Cycle 1 Day 1, geometric mean (CV%), N 7, read-out: AUC(0-6)), 5040 ng·h/mL; in data set [1] (po, 300 mg/day, Galunisertib 300 mg/day plus sorafenib, Cycle 1 Day 14, geometric mean (CV%), N 4, read-out: AUC(0-6)), 5570 ng·h/mL; in data set [1] (po, 300 mg/day, Galunisertib 300 mg/day plus sorafenib, Cycle 1 Day 14, geometric mean (CV%), N 4, read-out: AUC(0–24)), 10600 ng·h/mL. The Cmax amounted to 899 ng/mL in data set [1] (po, 160 mg/day, Galunisertib 160 mg/day plus sorafenib, Cycle 1 Day 1, plasma, N 7); 1150 ng/mL in data set [1] (po, 160 mg/day, Galunisertib 160 mg/day plus sorafenib, Cycle 1 Day 14, plasma, N 7); 1900 ng/mL in data set [1] (po, 300 mg/day, Galunisertib 300 mg/day plus sorafenib, Cycle 1 Day 1, plasma, N 7); 2000 ng/mL in data set [1] (po, 300 mg/day, Galunisertib 300 mg/day plus sorafenib, Cycle 1 Day 14, plasma, N 4). For the same compound, the AUC(0-inf) in data set [1] (setting [3]) is 7870 ng·h/mL; in data set [1] (setting [4]), 11100 ng·h/mL. Besides, the Vd/F in data set [1] (setting [3]) stood at 62 L; in data set [1] (setting [4]), 78.1 L.
